{"source": "paper PMC11952966", "about": "(2025)", "assay_in_all_cases": "ITC", "key": {"[1]": {"system": "NCB (DNA, aptamer) CTTACGACACAGGGCGTGGAGGAGCTGGGCTATTAGGGGTCGTAAG"}, "[2]": {"system": "NC1947 (DNA, aptamer) CTTACGACACAGGGCGTGGAGTGGCTGGGCTTCAAGGGGTCGTAAG"}, "[3]": {"system": "NC423 (DNA, aptamer) CTTACGACTTGTTCTGAGGGTCAACGGTGGTGTAGTTAGTCGTAAG"}, "[4]": {"system": "OM7 (DNA, aptamer) GGGACGACATCGTAGGGGCACACGCTTAACGGGCTGATGTCGTCCC"}, "[5]": {"system": "FXd (DNA, aptamer) GGGACGACGGTGTGGGGGTAGGGGGTGTGGGAAGCGGCGTCGTCCC", "conditions": "23 °C; selection buffer (Supplementary Table S1); one-site model"}}}
{"molecule": "COC(=O)[C@H]1[C@@H](OC(=O)c2ccccc2)C[C@@H]2CC[C@H]1N2C", "values": [{"measurement": "KD", "setting": "[1]", "result": 1000, "unit": "nM"}, {"measurement": "KD", "setting": "[2]", "result": 123, "unit": "nM"}, {"measurement": "KD", "setting": "[3]", "result": 22, "unit": "nM"}]}
{"molecule": "COc1ccc2c3c1O[C@H]1C(=O)CC[C@@]4(O)[C@@H](C2)N(C)CC[C@]314", "values": [{"measurement": "KD", "setting": "[4]", "result": 1400, "unit": "nM"}]}
{"molecule": "Cc1c(Nc2ncccc2C(=O)O)cccc1C(F)(F)F", "values": [{"measurement": "KD", "setting": "[5]", "result": 27400, "unit": "nM"}]}
